Target: NaV 1.8 channel (Homo sapiens, UniProt Q9Y5Y9)
Assay: Activity against NaV 1.8 channel (optical membrane potential assay)
Format: cell-based
Procedure, shortened: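 FRET membrane-potential assay (coumarin CC2-DMPE donor, oxonol DiSBAC2(3) acceptor plus veratridine) on VIPR; compound added with oxonol for 20–30 min before Na+ add-back stimulation. Activity from background-subtracted 460/580 nm ratio change (baseline 2–7 s, response 15–24 s) relative to tetracaine positive and drug-free negative controls.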

NaV 1.8 channel, sequence (Q9Y5Y9 whole entry): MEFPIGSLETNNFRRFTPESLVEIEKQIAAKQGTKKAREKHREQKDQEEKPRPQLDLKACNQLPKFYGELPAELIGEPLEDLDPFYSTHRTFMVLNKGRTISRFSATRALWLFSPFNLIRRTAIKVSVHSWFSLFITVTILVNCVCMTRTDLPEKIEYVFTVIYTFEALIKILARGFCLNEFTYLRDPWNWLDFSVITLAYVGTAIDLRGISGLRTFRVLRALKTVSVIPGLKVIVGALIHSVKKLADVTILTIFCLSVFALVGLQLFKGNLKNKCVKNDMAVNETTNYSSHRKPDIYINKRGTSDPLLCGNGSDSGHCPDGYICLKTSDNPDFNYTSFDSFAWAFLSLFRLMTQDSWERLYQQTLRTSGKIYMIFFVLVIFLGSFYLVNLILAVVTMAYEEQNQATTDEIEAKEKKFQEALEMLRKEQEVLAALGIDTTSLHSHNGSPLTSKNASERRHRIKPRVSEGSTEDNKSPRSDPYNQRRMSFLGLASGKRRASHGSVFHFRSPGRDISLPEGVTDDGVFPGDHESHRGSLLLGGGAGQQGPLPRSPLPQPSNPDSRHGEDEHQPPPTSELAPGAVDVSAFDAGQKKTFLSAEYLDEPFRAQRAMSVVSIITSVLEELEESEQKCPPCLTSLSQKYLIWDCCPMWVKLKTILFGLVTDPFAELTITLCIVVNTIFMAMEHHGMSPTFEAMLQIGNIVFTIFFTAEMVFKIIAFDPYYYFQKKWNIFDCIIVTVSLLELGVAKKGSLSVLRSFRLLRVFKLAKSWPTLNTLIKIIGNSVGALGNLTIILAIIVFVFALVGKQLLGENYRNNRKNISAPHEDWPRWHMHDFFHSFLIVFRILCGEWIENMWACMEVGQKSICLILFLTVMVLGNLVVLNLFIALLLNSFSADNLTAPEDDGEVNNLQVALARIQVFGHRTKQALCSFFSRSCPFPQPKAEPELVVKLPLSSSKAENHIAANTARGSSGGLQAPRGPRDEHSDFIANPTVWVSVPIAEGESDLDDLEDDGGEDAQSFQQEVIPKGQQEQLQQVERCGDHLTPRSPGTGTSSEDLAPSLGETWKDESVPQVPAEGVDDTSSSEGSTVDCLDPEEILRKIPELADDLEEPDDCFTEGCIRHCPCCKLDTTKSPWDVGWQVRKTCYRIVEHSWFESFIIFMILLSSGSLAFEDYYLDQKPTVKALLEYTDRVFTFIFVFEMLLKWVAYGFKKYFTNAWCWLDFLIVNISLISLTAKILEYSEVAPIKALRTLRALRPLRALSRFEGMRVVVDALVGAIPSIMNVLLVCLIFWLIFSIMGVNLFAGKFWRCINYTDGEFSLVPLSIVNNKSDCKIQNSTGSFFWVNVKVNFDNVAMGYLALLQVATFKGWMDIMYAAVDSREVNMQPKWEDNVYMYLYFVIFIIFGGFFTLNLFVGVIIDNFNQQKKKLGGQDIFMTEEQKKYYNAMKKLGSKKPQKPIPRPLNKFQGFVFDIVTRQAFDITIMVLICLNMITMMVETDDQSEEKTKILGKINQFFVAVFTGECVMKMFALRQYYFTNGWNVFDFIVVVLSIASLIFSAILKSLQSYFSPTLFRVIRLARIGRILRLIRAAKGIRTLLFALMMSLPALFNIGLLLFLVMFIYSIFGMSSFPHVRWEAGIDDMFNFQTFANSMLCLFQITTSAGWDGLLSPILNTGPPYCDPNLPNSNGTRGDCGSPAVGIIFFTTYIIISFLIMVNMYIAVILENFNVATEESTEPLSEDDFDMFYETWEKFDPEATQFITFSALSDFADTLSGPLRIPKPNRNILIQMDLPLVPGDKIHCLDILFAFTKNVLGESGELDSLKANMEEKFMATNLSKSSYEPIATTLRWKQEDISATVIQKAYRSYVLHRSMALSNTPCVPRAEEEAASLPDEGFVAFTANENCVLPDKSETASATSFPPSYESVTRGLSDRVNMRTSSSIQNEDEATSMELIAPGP

Row | SMILES | IC50
1 | Cc1ccc2c(N3CC[C@@H](NC(=O)[C@H](O)CC(C)(C)C)C3)nc(-c3ccccc3O)nc2c1 [Example 361, (2R)-2-Hydroxy-N—((R)-1-(2-(2-Hydroxyphenyl)-7-methylquinazolin-4-yl)pyrrolidin-3-yl)-4,4-dimethylpentanamide] | 2 to 10 µM
2 | Cc1ccc2c(N3CCCC(CNC(=O)O[C@H]4CCOC4)C3)nc(-c3ccccc3O)nc2c1 (stereo partly drawn) [Example 211, (S)-Tetrahydrofuran-3-yl (1-(2-(2-hydroxyphenyl)-7-methylquinazolin-4-yl)piperidin-3-yl)methylcarbamate] | > 10 µM
3 | Cc1ccc2c(N3CCN(C(=O)O[C@@H]4CCOC4)CC3)nc(-c3ccccc3O)nc2c1 [Example 182] | 2 to 10 µM

From patent US7928107B2, “Quinazolines useful as modulators of ion channels” (Vertex Pharmaceuticals Incorporated, priority 2004, dated 2011)
